# Activity calls are given as the source filed them.
# Key:
# [1] = fluconazole-exposed Candida albicans growth modulators – fluorescence, retest, confirmation (AID 2467); assay type: functional, cell-based
# Protein Wnt-3a = Protein Wnt-3a (Mus musculus, UniProt P27467); test: antagonism of Wnt3a pathway luciferase reporter – Wnt-LIGHT cells, luminescence, selectivity assay for Gli-SUFU antagonist project, dose response (AID 651570); assay type: functional; conditions: read-out: IC50_Mean;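 further: Wnt-LIGHT reporter cells stimulated with conditioned medium from Wnt3a-producing cells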
# [2] = NIH-3T3 fibroblast cytotoxicity, dose response, cytotoxicity control, cell-based, fluorescence, Alamar Blue, secondary assay (AID 2327); assay type: functional;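 further: NIH-3T3 mouse fibroblasts cultured with fluconazole at 8 µg/mL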
# [3] = Trypanosoma cruzi growth suppression in host cells – NIH3T3 host cells, beta-gal luminescence, confirmation (AID 2044); assay type: functional, cell-based;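 further: intracellular parasites grown in NIH/3T3 mouse fibroblasts as host cells; luminescent beta-galactosidase reporter signal from transgenic T. cruzi replicating inside host cells; inhibitors lower the luminescence signal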
# [4] = NIH3T3 cell viability loss – ATP luminescence, mouse fibroblasts, counter-screen, dose response (AID 2010); assay type: functional, cell-based;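 further: cells exposed to compound for about 90 hours before reading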
# [5] = target: T1, High affinity choline transporter 1 (Homo sapiens, UniProt Q9GZV3); test: human choline transporter blockers, potency – cell-based, 5-point CRC, membrane potential dye, dose response (AID 504840); assay type: functional
# T1 sequence (Q9GZV3 whole entry): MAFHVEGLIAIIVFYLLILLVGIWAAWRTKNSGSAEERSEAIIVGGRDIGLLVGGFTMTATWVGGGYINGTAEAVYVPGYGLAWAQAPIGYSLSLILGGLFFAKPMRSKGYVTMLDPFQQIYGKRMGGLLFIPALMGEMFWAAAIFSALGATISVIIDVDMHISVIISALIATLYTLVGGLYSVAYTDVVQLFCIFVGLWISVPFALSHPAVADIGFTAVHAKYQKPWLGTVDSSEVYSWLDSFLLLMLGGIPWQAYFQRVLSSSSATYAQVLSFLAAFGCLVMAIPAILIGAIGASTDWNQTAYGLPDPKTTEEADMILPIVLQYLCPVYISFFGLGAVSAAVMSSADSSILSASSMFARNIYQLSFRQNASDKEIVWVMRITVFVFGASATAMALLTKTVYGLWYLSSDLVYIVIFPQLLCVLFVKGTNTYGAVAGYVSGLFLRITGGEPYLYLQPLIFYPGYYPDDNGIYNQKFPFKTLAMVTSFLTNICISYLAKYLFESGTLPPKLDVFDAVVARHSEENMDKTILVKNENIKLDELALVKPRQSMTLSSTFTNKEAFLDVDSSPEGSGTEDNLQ
# [6] = target: T1, High affinity choline transporter 1; test: human choline transporter blockers, potency – cell-based, 10-point CRC, membrane potential dye, dose response (AID 588401); assay type: functional;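 further: membrane potential dye fluorescence of choline-evoked depolarization via CHT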
# [7] = target: ADP-ribosylation factor GTPase-activating protein 1 (Rattus norvegicus, UniProt Q62848); test: Fluorescence polarization-based biochemical high throughput dose response screening assay to identify inhibitors of ADP-ribosylation factor GTPase activating protein 1 (ARFGAP1).; assay type: functional
# [8] = target: T2, Carboxy-terminal domain RNA polymerase II polypeptide A small phosphatase 1 (Homo sapiens, UniProt Q9GZU7); test: CTDSP1 inhibitors, concentration-response, biochemical, absorbance readout, ultra-high-throughput screen actives (AID 540297); assay type: functional
# T2 sequence (Q9GZU7 whole entry): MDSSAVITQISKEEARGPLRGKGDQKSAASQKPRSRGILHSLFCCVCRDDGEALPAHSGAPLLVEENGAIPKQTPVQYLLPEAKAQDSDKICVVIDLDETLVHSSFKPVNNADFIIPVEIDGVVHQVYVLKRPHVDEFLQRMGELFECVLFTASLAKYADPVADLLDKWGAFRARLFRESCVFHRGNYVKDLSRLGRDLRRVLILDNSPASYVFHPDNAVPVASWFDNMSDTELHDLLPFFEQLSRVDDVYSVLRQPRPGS
# [9] = target: T3, Zinc finger protein mex-5 (Caenorhabditis elegans, UniProt Q9XUB2); test: potency of MEX-5 RNA-binding blockers – biochemical, C. elegans, fluorescence polarization, dose response (AID 1960)
# T3 sequence (Q9XUB2 whole entry): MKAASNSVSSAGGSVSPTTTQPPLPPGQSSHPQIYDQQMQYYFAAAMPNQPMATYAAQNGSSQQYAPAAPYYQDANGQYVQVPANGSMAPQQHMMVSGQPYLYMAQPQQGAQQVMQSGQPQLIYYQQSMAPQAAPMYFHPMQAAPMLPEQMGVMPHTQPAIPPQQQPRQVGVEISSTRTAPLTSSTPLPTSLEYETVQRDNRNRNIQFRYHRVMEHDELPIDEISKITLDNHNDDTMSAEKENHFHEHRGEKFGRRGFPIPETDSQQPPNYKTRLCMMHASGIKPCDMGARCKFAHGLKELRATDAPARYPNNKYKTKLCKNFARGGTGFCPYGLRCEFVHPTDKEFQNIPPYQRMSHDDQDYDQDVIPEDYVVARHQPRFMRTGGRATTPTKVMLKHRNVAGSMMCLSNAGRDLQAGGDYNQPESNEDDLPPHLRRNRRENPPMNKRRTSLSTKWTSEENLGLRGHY
# [10] = target: DNA (cytosine-5)-methyltransferase 1 (Homo sapiens, UniProt P26358); test: inhibition of DNA methylation by DNMT1 – biochemical, fluorescent molecular beacon, confirmation (AID 602386); assay type: functional
# [11] = target: T4, Histone-lysine N-methyltransferase NSD2 (Homo sapiens, UniProt O96028); assay type: biochemical
# T4 sequence (O96028 whole entry): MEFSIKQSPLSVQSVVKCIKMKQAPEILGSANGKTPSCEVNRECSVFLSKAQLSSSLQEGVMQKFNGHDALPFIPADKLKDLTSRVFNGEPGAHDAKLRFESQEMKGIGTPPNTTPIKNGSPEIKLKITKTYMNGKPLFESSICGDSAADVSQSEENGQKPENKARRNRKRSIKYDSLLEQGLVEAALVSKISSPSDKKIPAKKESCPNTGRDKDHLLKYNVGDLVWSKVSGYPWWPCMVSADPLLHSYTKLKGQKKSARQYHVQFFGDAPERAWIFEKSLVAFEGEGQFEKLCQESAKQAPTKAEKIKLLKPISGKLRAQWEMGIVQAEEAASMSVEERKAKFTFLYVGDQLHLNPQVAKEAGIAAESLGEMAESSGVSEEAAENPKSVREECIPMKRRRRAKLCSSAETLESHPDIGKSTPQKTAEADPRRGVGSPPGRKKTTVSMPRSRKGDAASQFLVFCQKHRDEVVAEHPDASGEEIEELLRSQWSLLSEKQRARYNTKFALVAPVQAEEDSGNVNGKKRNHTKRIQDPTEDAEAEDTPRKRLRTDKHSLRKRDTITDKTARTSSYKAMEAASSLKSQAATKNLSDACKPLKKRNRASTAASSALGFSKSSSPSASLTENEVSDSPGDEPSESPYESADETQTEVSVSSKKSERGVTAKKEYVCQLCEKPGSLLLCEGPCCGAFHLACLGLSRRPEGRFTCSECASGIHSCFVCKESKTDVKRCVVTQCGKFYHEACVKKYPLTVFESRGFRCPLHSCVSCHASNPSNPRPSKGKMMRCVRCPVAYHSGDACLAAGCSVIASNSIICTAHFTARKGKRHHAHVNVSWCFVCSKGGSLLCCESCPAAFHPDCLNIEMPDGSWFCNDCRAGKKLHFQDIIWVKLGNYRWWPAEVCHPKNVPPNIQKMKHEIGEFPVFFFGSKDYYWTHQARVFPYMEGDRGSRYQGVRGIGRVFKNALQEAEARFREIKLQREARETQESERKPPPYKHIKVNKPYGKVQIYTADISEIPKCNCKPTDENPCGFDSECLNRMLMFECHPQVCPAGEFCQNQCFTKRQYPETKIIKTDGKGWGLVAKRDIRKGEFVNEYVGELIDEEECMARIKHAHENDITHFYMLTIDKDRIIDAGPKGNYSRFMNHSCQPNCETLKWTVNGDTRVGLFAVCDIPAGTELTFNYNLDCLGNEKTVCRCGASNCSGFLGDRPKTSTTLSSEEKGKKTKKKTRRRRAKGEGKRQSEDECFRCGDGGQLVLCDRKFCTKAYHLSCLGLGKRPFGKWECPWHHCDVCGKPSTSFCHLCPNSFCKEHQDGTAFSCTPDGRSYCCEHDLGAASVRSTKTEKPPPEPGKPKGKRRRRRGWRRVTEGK
# [12] = target: T5, RNA-binding protein pos-1 (Caenorhabditis elegans, UniProt G5EF15); test: disruptors of C. elegans POS-1 RNA interaction – biochemical, fluorescence polarization, dose response (AID 1964);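 further: purified POS-1 fused to maltose binding protein made in E. coli; potency of compounds blocking POS-1 binding to fluorescent RNA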
# T5 sequence (G5EF15 whole entry): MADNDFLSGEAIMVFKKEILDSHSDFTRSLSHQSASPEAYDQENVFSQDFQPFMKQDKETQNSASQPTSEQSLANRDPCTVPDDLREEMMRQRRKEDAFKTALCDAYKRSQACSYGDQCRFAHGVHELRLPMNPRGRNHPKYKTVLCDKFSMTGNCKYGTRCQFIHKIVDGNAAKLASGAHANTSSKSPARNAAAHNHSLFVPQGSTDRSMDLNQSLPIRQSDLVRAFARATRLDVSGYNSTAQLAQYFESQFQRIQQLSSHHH
# [13] = viability of uninfected HEp-2 cells – cell-based, HTS, cytotoxicity control for RSV inhibitor project, dose response (AID 2410); assay type: functional; conditions: human respiratory syncytial virus
# [14] = CCR5-tropic HIV-1 fusion blockers – cell-based, CCR5-tropic Env, dose response (AID 2279); assay type: functional
# [15] = Luminescence Cell-Based Dose Retest to Confirm Inhibitors of Cancer Stem Cells. [Related pubchem assays (depositor defined):AID2717, AID2721]; assay type: functional; conditions: Homo sapiens
# [16] = target: Induced myeloid leukemia cell differentiation protein Mcl-1 (Homo sapiens, UniProt Q07820); assay type: functional
# [17] = HEK-293T viability loss after treatment – luminescence, T-cell screen hits, cytotoxicity control for TCR NF-kB inhibitor project, dose response (AID 489026); assay type: functional, cell-based;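 further: cells exposed to compound about 14 hours before the viability readout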
# [18] = target: Photoreceptor-specific nuclear receptor (Homo sapiens, UniProt Q9Y5X4); assay type: functional, cell-based;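 further: CHO-S cells with Gal4-NCOR and VP16-NR2E3 two-hybrid luciferase reporter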
# [19] = target: T6, Sentrin-specific protease 8 (Homo sapiens, UniProt Q96LD8); assay type: functional
# T6 sequence (Q96LD8 whole entry): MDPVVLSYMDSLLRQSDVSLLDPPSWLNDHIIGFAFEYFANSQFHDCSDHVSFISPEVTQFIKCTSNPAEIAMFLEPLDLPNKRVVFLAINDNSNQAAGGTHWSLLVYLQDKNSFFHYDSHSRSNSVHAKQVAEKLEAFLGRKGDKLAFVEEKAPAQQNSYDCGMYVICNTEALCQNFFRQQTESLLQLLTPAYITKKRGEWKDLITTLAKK
# [20] = target: T6, Sentrin-specific protease 8; assay type: functional; remark: listed apart in the source
# [21] = general mammalian cell viability loss – inhibitor set, cherry-pick, set 2, cytotoxicity control for miR-122 modulator project, dose response (AID 720697); assay type: functional, cell-based
# [22] = activation of miR-122 Renilla sensor silencing – cell-based, Huh7 psiCHECK-miR122, Renilla luciferase, cherry-picked, dose response (AID 651956); assay type: functional;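 further: huh7 hepatoma cells stably carrying a psiCHECK-2 miR-122 sensor plasmid; renilla luciferase signal reporting endogenous miR-122 activity after 48 h compound exposure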
# [23] = target: Hepatocyte nuclear factor 4-alpha (Homo sapiens, UniProt P41235); assay type: functional, cell-based;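 further: biochemical luminescence-based dose-response counterscreen measuring inhibition of HNF4 dimerization, run alongside a screen for blockers of ABHD5–perilipin-5 interaction; split luciferase complementation of HNF4 fusion proteins in cell lysate measuring dimerization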
# [24] = target: T7, Mitochondrial peptide methionine sulfoxide reductase (Bos taurus, UniProt P54149); assay type: functional;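 further: absorbance read-out, biochemical high-throughput dose-response screen for MsrA inhibitors, confirmatory; recombinant bovine MsrA coupled to E. coli TrxB with NADPH and selenocystamine; potency is for inhibitors of MsrA activity on DMSO substrate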
# T7 sequence (P54149 whole entry): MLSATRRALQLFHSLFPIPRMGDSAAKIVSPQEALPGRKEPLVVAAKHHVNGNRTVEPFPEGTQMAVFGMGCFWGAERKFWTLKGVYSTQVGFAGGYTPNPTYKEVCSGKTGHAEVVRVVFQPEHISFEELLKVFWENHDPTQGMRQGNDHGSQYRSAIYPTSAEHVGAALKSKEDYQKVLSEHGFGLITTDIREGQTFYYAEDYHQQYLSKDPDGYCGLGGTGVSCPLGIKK
# Sequence of Protein Wnt-3a (P27467 whole entry): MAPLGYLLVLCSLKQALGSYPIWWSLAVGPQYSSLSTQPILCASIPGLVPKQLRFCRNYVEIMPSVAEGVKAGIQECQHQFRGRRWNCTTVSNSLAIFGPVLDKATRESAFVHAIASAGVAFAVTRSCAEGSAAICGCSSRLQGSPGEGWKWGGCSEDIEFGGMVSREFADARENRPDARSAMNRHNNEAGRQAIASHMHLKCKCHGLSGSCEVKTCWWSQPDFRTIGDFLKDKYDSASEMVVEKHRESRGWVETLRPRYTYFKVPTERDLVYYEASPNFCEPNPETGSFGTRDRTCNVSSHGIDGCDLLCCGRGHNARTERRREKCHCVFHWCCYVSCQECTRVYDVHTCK
# Sequence of DNA (cytosine-5)-methyltransferase 1 (P26358 whole entry): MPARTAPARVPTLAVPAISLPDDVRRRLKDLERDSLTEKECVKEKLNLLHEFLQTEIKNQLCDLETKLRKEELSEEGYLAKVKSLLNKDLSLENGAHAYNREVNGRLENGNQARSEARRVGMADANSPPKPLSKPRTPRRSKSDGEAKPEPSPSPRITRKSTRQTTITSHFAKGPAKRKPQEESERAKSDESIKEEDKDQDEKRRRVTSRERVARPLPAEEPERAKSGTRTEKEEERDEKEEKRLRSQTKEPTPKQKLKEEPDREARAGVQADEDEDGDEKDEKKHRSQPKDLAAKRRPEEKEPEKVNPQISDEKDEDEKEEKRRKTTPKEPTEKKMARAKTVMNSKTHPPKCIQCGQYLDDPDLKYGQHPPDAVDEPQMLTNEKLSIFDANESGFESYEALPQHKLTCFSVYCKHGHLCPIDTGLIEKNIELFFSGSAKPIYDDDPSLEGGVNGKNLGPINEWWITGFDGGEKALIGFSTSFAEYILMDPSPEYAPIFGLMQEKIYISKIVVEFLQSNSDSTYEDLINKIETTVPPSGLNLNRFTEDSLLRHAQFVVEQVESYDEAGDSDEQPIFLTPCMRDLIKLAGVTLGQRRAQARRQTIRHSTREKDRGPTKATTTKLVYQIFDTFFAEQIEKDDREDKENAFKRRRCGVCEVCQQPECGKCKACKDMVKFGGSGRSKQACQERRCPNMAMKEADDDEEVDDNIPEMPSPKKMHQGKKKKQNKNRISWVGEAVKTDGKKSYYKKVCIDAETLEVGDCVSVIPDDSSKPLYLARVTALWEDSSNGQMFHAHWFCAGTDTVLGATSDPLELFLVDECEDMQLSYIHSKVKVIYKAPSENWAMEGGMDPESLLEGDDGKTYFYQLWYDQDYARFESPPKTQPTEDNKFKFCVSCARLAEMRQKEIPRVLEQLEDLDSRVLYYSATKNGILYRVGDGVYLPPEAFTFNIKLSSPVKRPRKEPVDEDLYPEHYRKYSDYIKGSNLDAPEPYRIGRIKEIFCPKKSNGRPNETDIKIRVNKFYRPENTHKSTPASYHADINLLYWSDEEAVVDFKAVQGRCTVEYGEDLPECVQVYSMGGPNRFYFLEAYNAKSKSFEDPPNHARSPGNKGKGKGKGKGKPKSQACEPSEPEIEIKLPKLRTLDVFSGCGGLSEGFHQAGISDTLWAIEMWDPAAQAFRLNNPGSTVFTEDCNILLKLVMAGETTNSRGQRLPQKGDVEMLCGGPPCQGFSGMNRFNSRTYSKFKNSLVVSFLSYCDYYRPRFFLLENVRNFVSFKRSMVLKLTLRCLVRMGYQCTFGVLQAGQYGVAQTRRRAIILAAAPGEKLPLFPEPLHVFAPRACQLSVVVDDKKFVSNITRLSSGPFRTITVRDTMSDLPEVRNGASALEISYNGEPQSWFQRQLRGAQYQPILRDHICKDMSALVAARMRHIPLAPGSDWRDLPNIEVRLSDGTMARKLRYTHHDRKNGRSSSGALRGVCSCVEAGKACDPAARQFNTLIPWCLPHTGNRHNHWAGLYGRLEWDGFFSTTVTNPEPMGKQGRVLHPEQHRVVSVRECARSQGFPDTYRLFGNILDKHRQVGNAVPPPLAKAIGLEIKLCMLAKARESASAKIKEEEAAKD
# Sequence of Hepatocyte nuclear factor 4-alpha (P41235 whole entry, the tested form may be a part): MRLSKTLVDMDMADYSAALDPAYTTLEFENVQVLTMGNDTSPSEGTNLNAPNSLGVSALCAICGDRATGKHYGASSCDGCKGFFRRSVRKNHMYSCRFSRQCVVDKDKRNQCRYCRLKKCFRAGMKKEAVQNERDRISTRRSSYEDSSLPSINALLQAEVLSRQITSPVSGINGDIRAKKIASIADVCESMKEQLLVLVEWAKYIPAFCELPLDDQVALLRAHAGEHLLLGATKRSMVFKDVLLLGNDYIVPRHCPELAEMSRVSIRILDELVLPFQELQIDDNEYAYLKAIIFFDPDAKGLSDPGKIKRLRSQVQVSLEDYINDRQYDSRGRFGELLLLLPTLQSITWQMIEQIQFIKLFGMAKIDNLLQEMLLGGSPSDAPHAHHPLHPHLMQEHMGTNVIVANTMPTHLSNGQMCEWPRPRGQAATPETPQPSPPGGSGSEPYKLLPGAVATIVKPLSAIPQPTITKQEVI
# Sequence of Photoreceptor-specific nuclear receptor (Q9Y5X4 whole entry, the tested form may be a part): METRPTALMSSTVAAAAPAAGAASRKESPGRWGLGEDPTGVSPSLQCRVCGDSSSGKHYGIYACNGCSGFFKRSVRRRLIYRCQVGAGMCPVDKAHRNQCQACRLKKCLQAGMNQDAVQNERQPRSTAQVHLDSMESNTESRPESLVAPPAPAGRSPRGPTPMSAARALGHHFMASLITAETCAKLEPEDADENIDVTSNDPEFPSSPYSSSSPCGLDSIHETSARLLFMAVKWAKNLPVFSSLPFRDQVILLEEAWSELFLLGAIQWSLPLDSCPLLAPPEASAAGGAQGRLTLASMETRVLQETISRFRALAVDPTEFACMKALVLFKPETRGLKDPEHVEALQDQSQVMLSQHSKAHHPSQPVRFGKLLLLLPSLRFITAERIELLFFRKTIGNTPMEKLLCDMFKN
# Sequence of Induced myeloid leukemia cell differentiation protein Mcl-1 (Q07820 whole entry): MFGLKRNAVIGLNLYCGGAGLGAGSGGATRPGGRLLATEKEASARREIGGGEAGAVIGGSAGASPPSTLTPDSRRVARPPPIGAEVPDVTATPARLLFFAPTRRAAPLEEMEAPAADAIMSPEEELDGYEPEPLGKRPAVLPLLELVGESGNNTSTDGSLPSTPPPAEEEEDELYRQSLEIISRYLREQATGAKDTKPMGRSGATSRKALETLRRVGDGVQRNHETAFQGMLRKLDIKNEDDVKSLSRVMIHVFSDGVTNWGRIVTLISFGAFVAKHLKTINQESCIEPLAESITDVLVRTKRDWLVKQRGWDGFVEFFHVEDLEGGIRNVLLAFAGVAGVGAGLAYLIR
# Sequence of ADP-ribosylation factor GTPase-activating protein 1 (Q62848 whole entry, the tested form may be a part): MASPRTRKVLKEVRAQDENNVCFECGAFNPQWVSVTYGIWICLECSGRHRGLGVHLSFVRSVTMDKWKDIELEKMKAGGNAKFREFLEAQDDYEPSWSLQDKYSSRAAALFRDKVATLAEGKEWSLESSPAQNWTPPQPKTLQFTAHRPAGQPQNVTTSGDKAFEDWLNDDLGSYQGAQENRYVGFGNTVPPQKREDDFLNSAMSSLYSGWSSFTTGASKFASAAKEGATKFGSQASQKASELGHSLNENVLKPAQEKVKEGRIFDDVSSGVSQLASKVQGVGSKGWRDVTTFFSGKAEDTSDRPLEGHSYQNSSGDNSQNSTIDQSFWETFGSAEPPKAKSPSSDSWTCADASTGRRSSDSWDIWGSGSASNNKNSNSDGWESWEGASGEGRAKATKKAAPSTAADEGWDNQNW
compound,measurement,setting,value
Cc1c(CCOC(=O)C23CC4CC(CC(C)(C4)C2)C3)sc[n+]1Cc1ccccc1,EC50,[1],2.08 µM (active)
same,IC50,Protein Wnt-3a,32 µM (inactive)
same,EC50,[2],> 150 µM (inactive)
COc1ccccc1CCNC(=O)c1cc(-c2ccncc2)nc2ccc(Br)cc12,EC50,[3],0.874 µM (active)
same,IC50,Protein Wnt-3a,10.9 µM (active)
same,EC50,[4],> 60 µM (not active)
O=C(Nc1ccc(S(=O)(=O)NCC2CCCO2)cc1)c1ccc(Cl)cc1[N+](=O)[O-] (stereo not drawn),IC50,[5],7.39 µM (active)
same,IC50,[6],4.47 µM (active)
COc1ccc(-n2nc3c(N4CCC(C(=O)NCc5ccccc5)CC4)nnc(C)c3c2C)cc1,IC50,[7],40.6 µM (inactive)
CCOc1cccc(N2C(=O)/C(=C/c3ccco3)C(=O)NC2=S)c1,IC50,[8],1.6 µM (active)
same,EC50,[9],> 300 µM (not active)
same,IC50,[10],4.24 µM (active)
same,AC50,[11],1.04 µM (active)
same,EC50,[12],> 300 µM (not active)
O=C(O)CCCCCN1C(=O)/C(=C\c2cn(-c3ccccc3)nc2-c2cccs2)SC1=S,CC50,[13],12 µM (active)
same,IC50,[14],37.4 µM (active)
same,IC50,[10],6.97 µM (active)
same,AC50,[15],3.54 µM (active)
same,IC50,[16],2.31 µM (active)
COc1cc2nc(CN3CC=C(c4ccccc4)CC3)nc(O)c2cc1OC,IC50,[17],> 80 µM (inactive)
same,AC50,[15],0.609 µM (active)
same,IC50,[18],0.0655 µM (active)
O=C1NC(=O)C(Nc2ccc(Cl)c(Cl)c2)C(=O)N1,IC50,[19],10.9 µM (active)
same,IC50,[20],8.82 µM (active)
Cc1cc(C(=O)Nc2ccc3c(c2)C(=O)N(C)[C@@H]2CC[C@H](CC(=O)N[C@@H](C)c4ccccc4)O[C@H]2CO3)no1,AC50,[21],1.12 µM (active)
same,AC50,[22],57.6 µM (active)
O=C(Nc1ccc2c(c1)OCCO2)C(c1ccnc2ccccc12)n1c(=O)c(-c2ccco2)nc2ccccc21 (stereo not drawn),IC50,[23],18.9 µM (inactive)
COc1ccc(/C=N/n2c(S)nnc2C2CCCCC2)c(OC)c1,IC50,[24],155 µM (inactive)

# Reference: ChEMBL document CHEMBL1201862, “PubChem BioAssay data set” (2004)
